According to ChEMBL document CHEMBL1125952, “Prevention of human leukocyte elastase-mediated lung damage by 3-alkyl-4-azetidinones” (1991):

Experiments:
[1] = target: T1, Neutrophil elastase (Homo sapiens) (UniProt P08246); experiment: Inhibition of human leukocyte elastase-induced lung hemorrhage in hamster, after 100 ug of compound administered intratracheally.; format: functional, tissue-based
T1 sequence (whole entry): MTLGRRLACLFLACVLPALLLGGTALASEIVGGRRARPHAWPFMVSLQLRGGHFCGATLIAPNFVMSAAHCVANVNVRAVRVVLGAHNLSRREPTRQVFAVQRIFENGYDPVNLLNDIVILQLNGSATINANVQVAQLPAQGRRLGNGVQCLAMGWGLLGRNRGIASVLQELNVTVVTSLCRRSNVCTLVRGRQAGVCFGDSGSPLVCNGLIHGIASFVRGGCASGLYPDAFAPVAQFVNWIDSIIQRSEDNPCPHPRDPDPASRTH

[2] = target: T1, Neutrophil elastase (Homo sapiens); experiment: Inhibition of human leukocyte elastase, expressed as biomolecular rate constant.
[3] = test system: Cricetinae gen. sp.; experiment: Compound at dose 20 ug was tested for percentage inhibition of HLE-induced Lung Hemorrhage in hamsters at 2 hr prior to installation of human leukocyte elastase; format: functional, Cricetulus griseus
[4] = test system: Cricetinae gen. sp.; experiment: Compound at dose 20 ug was tested for percentage inhibition of HLE-induced Lung Hemorrhage in hamsters at 1 hr prior to installation of human leukocyte elastase; format: functional, Cricetulus griseus
[5] = test system: Cricetinae gen. sp.; experiment: Effective dose administered intratracheally required to give 50% inhibition at 30 minutes prior to installation of human leukocyte elastase in hamster lung; format: functional, Cricetulus griseus
[6] = test system: Cricetinae gen. sp.; experiment: Compound at dose 20 ug was tested for percentage inhibition of HLE-induced Lung Hemorrhage in hamsters at 4 hr prior to installation of human leukocyte elastase; format: functional, Cricetulus griseus
[7] = test system: Cricetinae gen. sp.; experiment: Compound at dose 20 ug was tested for percentage inhibition of HLE-induced Lung Hemorrhage in hamsters at 3 hr prior to installation of human leukocyte elastase; format: functional, Cricetulus griseus

Structure (SMILES): CC[C@@H]1C(=O)N(S(=O)(=O)c2ccc(C)cc2)[C@@H]1C(=O)N(C)CC(=O)O
- inhibition [1]: 94%
- K obs / 1 [2]: 732 M⁻¹ s⁻¹

Structure (SMILES): CCOC(=O)N1C(=O)C(CC)C1OC(C)C(=O)O (single isomer, unassigned; isomer A)
- inhibition [1]: 71%
- K obs / 1 [2]: 346 M⁻¹ s⁻¹

Structure (SMILES): CCC1C(=O)N(C(=O)NCc2ccccc2)C1Oc1ccc(CC(=O)O)cc1 (trans isomer)
- K obs / 1 [2]: 2070 M⁻¹ s⁻¹

Structure (SMILES): CCOC(=O)N1C(=O)[C@H](CC)[C@H]1OCC(=O)O
- Inhibition [3]: 82%
- Inhibition [4]: 100%
- ED50 [5]: 3.9 µg
- inhibition [1]: 99%
- Inhibition [6]: -14%
- K obs / 1 [2]: 918 M⁻¹ s⁻¹
- Inhibition [7]: 59%

Structure (SMILES): CCOC(=O)N1C(=O)C(CC)C1[S+]([O-])CC(=O)O (stereo not given)
- inhibition [1]: 71%
- K obs / 1 [2]: 1670 M⁻¹ s⁻¹

Structure (SMILES): CC[C@H]1C(=O)N(C(=O)NCc2ccccc2)[C@@H]1Oc1ccc(C(=O)O)cc1
- inhibition [1]: 2%
- K obs / 1 [2]: 3840 M⁻¹ s⁻¹

Structure (SMILES): CCC1C(=O)N(S(=O)(=O)c2ccc(C)cc2)C1C(=O)OCC(=O)O (cis isomer) [listing 1 of 2 here]
- Inhibition [3]: 32%
- Inhibition [4]: 66%
- ED50 [5]: 24.6 µg
- Inhibition [6]: 30%
- Inhibition [7]: 11%

Structure (SMILES): CCOC(=O)N1C(=O)C(CC)C1OC(C)C(=O)O (single isomer, unassigned; isomer B)
- inhibition [1]: 81%
- K obs / 1 [2]: 158 M⁻¹ s⁻¹

Structure (SMILES): CCC1C(=O)N(C(=O)NCc2ccccc2)C1OCC(=O)O (stereo not given)
- inhibition [1]: 50%
- K obs / 1 [2]: 129 M⁻¹ s⁻¹

Structure (SMILES): CCOC(=O)N1C(=O)C(CC)C1S(=O)(=O)CC(=O)O (trans isomer)
- inhibition [1]: 70%
- K obs / 1 [2]: 5620 M⁻¹ s⁻¹

Structure (SMILES): CCOC(=O)N1C(=O)C(CC)C1Oc1ccc(CC(=O)O)cc1 (trans isomer)
- K obs / 1 [2]: 4100 M⁻¹ s⁻¹

Structure (SMILES): CCCC1C(=O)N(C(=O)OCC)C1OCC(=O)O (stereo not given)
- Inhibition [3]: 31%
- Inhibition [4]: 83%
- ED50 [5]: 6.3 µg
- inhibition [1]: 88%
- Inhibition [6]: -2%
- K obs / 1 [2]: 1500 M⁻¹ s⁻¹
- Inhibition [7]: -17%

Structure (SMILES): CCOC(=O)N1C(=O)C(CC)C1OCC(=O)NCC(=O)O (stereo not given)
- inhibition [1]: 72%
- K obs / 1 [2]: 1000 M⁻¹ s⁻¹

Structure (SMILES): CO[C@H]1C(=O)N2C(C(=O)N3CCC[C@H]3C(=O)O)=C(COC(C)=O)CS(=O)(=O)[C@H]12
- Inhibition [3]: 85%
- Inhibition [4]: 98%
- ED50 [5]: 3.1 µg
- Inhibition [6]: -23%
- Inhibition [7]: 74%

Structure (SMILES): CC[C@@H]1C(=O)N(C(=O)NCc2ccccc2)[C@H]1Oc1ccc(C(=O)O)cc1
- inhibition [1]: 17%
- K obs / 1 [2]: 339 M⁻¹ s⁻¹

Structure (SMILES): CCC1C(=O)N(C(=O)OCc2ccccc2)C1OCC(=O)O (trans isomer)
- inhibition [1]: 51%
- K obs / 1 [2]: 955 M⁻¹ s⁻¹

Structure (SMILES): CCOC(=O)N1C(=O)C(CC)C1OCCCC(=O)O (trans isomer)
- inhibition [1]: 23%
- K obs / 1 [2]: 1250 M⁻¹ s⁻¹

Structure (SMILES): CCC1C(=O)N(S(=O)(=O)c2ccc(C)cc2)C1C(=O)N(C)CC(=O)O (cis isomer)
- Inhibition [3]: 68%
- Inhibition [4]: 78%
- ED50 [5]: 18.7 µg
- inhibition [1]: 84%
- Inhibition [6]: 4%
- K obs / 1 [2]: 165 M⁻¹ s⁻¹
- Inhibition [7]: 60%

Structure (SMILES): CCOC(=O)N1C(=O)C(CC)C1SCC(=O)O (trans isomer)
- inhibition [1]: 56%
- K obs / 1 [2]: 1090 M⁻¹ s⁻¹

Structure (SMILES): CCOC(=O)N1C(=O)C(CC)C1OCC(=O)O (cis isomer)
- inhibition [1]: 81%
- K obs / 1 [2]: 796 M⁻¹ s⁻¹

Structure (SMILES): CCOC(=O)N1C(=O)C(CC)C1OCCC(=O)O (trans isomer)
- inhibition [1]: 31%
- K obs / 1 [2]: 560 M⁻¹ s⁻¹

Structure (SMILES): CCOC(=O)N1C(=O)C(CC)C1Oc1ccc(C(=O)O)cc1 (trans isomer)
- K obs / 1 [2]: 6350 M⁻¹ s⁻¹

Structure (SMILES): CCOC(=O)N1C(=O)[C@@H](CC)[C@@H]1OCC(=O)O
- Inhibition [3]: 49%
- Inhibition [4]: 92%
- ED50 [5]: 11.3 µg
- inhibition [1]: 86%
- Inhibition [6]: -3%
- K obs / 1 [2]: 136 M⁻¹ s⁻¹
- Inhibition [7]: 6%

Structure (SMILES): CC[C@H]1C(=O)N(S(=O)(=O)c2ccc(C)cc2)[C@@H]1C(=O)O
- Inhibition [3]: 33%
- Inhibition [4]: 78%
- ED50 [5]: 3 µg
- inhibition [1]: 98%
- Inhibition [6]: 16%
- K obs / 1 [2]: 377 M⁻¹ s⁻¹
- Inhibition [7]: 1%

Structure (SMILES): CC[C@H]1C(=O)N(S(=O)(=O)c2ccc(C)cc2)[C@@H]1C(=O)N(C)CC(=O)O
- inhibition [1]: 99%
- K obs / 1 [2]: 271 M⁻¹ s⁻¹

Structure (SMILES): CC[C@H]1C(=O)N(S(=O)(=O)c2ccc(C)cc2)[C@H]1C(=O)N(C)CC(=O)O
- inhibition [1]: 61%
- K obs / 1 [2]: 110 M⁻¹ s⁻¹

Structure (SMILES): CCOC(=O)N1C(=O)C(CC)C1OCC(=O)O (trans isomer) [listing 1 of 2 here]
- Inhibition [3]: 63%
- Inhibition [4]: 96%
- ED50 [5]: 6.3 µg
- Inhibition [6]: -5%
- Inhibition [7]: 36%

Structure (SMILES): CCC1C(=O)N(S(=O)(=O)c2ccc(C)cc2)C1C(=O)O (cis isomer)
- inhibition [1]: 80%
- K obs / 1 [2]: 93 M⁻¹ s⁻¹

Structure (SMILES): CCC1C(=O)N(S(=O)(=O)c2ccc(C)cc2)C1C(=O)OCC(=O)O (cis isomer) [listing 2 of 2 here]
- inhibition [1]: 73%
- K obs / 1 [2]: 1550 M⁻¹ s⁻¹

Structure (SMILES): CC[C@@H]1C(=O)N(S(=O)(=O)c2ccc(C)cc2)[C@H]1C(=O)N(C)CC(=O)O
- inhibition [1]: 74%
- K obs / 1 [2]: 398 M⁻¹ s⁻¹

Structure (SMILES): CCOC(=O)N1C(=O)C(CC)C1OCC(=O)O (trans isomer) [listing 2 of 2 here]
- inhibition [1]: 98%
- K obs / 1 [2]: 467 M⁻¹ s⁻¹

Structure (SMILES): CCC1C(=O)N(S(=O)(=O)c2ccc(C)cc2)C1C(=O)OCC(=O)O (stereo in doubt)
- inhibition [1]: 14%
- K obs / 1 [2]: 9420 M⁻¹ s⁻¹
